According to PMC6121530, “Synthesis, Biological Evaluation and Molecular Docking of Novel Indole-Aminoquinazoline Hybrids for Anticancer Properties” (International Journal of Molecular Sciences, 2018):

Target: T1, epidermal growth factor receptor tyrosine kinase (EGFR-TK) (Homo sapiens, UniProt P00533)
T1 construct: purified Epidermal Growth Factor Receptor (Sigma-Aldrich)
Test: ELISA kinase inhibition assay with purified EGFR
Assay type: biochemical

T1 sequence (P00533 25-1210): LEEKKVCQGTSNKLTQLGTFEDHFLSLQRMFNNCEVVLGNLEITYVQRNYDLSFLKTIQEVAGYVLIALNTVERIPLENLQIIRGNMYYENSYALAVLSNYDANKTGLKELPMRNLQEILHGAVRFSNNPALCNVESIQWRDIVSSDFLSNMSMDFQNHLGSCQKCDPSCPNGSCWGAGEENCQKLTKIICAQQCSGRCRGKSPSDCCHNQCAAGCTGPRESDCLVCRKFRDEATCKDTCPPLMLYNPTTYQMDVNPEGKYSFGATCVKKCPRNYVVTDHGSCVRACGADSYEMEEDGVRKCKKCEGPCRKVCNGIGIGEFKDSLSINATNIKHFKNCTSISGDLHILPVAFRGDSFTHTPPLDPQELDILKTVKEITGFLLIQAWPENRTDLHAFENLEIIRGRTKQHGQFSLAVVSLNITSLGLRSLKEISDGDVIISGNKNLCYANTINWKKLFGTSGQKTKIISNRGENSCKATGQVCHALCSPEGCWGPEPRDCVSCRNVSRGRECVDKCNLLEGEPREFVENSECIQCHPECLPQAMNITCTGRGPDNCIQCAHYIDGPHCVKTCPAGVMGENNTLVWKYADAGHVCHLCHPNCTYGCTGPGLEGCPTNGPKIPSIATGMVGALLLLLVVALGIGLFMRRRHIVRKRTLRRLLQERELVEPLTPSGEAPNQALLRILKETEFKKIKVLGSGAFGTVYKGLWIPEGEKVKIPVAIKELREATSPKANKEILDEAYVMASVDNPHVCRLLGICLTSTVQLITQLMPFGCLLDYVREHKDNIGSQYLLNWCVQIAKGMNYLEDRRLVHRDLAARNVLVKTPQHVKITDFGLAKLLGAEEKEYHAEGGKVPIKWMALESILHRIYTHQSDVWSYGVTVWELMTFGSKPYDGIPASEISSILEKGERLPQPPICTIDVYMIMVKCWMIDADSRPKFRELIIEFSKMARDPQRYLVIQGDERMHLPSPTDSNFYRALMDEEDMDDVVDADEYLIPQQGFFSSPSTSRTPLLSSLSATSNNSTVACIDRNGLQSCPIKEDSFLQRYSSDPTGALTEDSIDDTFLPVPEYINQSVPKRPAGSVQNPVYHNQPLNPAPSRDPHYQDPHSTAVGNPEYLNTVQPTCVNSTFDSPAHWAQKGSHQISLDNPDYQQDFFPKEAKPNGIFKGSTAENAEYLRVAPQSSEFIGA

- IC50: 52.5 nM
SMILES: Fc1ccc(-c2nc(Nc3cc(Br)cc4cc(-c5ccc(F)cc5)[nH]c34)c3ccccc3n2)cc1 [4f, N-(5-Bromo-2-(4-fluorophenyl)-1H-indol-7-yl)-2-(4-fluorophenyl)quinazolin-4-amine]
